According to patent publication US12048725B2, “Methods for promoting intestinal health and for enhancing antioxidation using prebiotic composition” (TCI CO., LTD., priority 2022, dated 2024):

Tested on: Akkermansia muciniphila
Test: Effects of prebiotic compositions with different components on growth of Akkermansia muciniphila (Example 2)
Format: cell-based
Description: The xylooligosaccharide used was purchased from Shandong Longlive Bio-Technology Co., Ltd. The lactitol used was purchased from Welltech Biotechnology Co., Ltd. The inulin used was purchased from Cosucra. The fructooligosaccharide used was purchased from Meiji. The grape ferment used was the grape ferment prepared in Example 1. The liquid medium used was tryptone soy broth (TSB; hereinafter referred to as TSB medium) with 5% sheep blood (purchased from BD).
The groups were divided into blank group, 5 experimental groups (experimental groups A-E) and 5 control groups (control groups A-E), as shown in Table 1.
The experimental medium used in control groups A-E included 94% TSB medium, 5% sheep blood and 1% single-component prebiotic compositions A-E, respectively; and the single-component prebiotic compositions A-E were xylooligosaccharide, lactitol, inulin, fructooligosaccharide and grape ferment, respectively. […]
1% activated Akkermansia muciniphila was respectively added to a 15 mL test tube containing 5 mL of medium of each group, and subjected to anaerobic culture at 37° C. for 48 hours. After 48 hours of culture, 100 μL of bacterial suspension was respectively taken from the test tube of each group, added to the solid TSB medium containing 5% sheep blood, and subjected to anaerobic culture at 37° C. for 72 hours, and then, the bacterial count of each group was calculated. […]

Q: What does the source list for `OC[C@@H](O)[C@@H](O[C@@H]1O[C@H](CO)[C@H](O)[C@H](O)[C@H]1O)[C@H](O)[C@@H](O)CO` [control group B, lactitol]?
A: bacterial count (1% prebiotic composition in 94% TSB medium + 5% sheep blood, anaerobic culture at 37° C. for 48 hours, then plated 72 hours, blank group 6.50 log CFU): 6.67 log CFU; effect on bacterial count/growth of Akkermansia muciniphila as compared with the blank group (1% prebiotic composition in medium, FIG. 1): increased the bacterial count of Akkermansia muciniphila
